Reference: patent publication US20230373939A1 (VERTEX PHARMACEUTICALS INCORPORATED, priority 2020, published 2023)
Where two headings read alike, the source gives them in different places.

Target: T1, F508del in NIH 3T3 cells (Homo sapiens, UniProt P13569, DEL508-508)
T1 construct: expressed in transfected cells
Assay: 3T3 assay: membrane potential optical assay for F508del correction
Assay type: cell-based
Conditions: for EC50: read-out: 3T3 EC50
Excerpt: 1. Membrane Potential Optical Methods for Assaying F508del Modulation Properties of Compounds
The assay utilizes fluorescent voltage sensing dyes to measure changes in membrane potential using a fluorescent plate reader (e.g., FLTPR III, Molecular Devices, Inc.) as a readout for increase in functional F508del in NIH 3T3 cells. The driving force for the response is the creation of a chloride ion gradient in conjunction with channel activation by a single liquid addition step after the cells have previously been treated with compounds and subsequently loaded with a voltage sensing dye.
2. Identification of Corrector Compounds
To identify correctors of F508del, a single-addition HTS assay format was developed. This HTS assay utilizes fluorescent voltage sensing dyes to measure changes in membrane potential on the FLIPR III as a measurement for increase in gating (conductance) of F508del in F508del NUT 3T3 cells. The F508del NUT 3T3 cell cultures were incubated with the corrector compounds at a range of concentrations for 18-24 hours at 37° C., and subsequently loaded with a redistribution dye. The driving force for the response is a Cl^− ion gradient in conjunction with channel activation with forskolin in a single liquid addition step using a fluorescent plate reader such as FLIPR III.
Bath Solution #1: (in mM) NaCl 160, KCl 4.5, CaCl2 2, MgCl2 1, HEPES 10, pH 7.4 with NaOH.
Chloride-free bath solution: Chloride salts in Bath Solution #1 (above) are substituted with gluconate salts.
NIH3T3 mouse fibroblasts stably expressing F508del were used for optical measurements of membrane potential. The cells were maintained at 37° C. in 5% CO2 and 90% humidity in Dulbecco's modified Eagle's medium supplemented with 2 mM glutamine, 10% fetal bovine serum, 1×NEAA, b-ME, 1×pen/strep, and 25 mM HEPES in 175 cm^2 culture flasks. For all optical assays, the cells were seeded at ˜20,000/well in 384-well Matrigel-coated plates. For the correction assays, the cells were cultured at 37° C. with and without compounds for 16-24 hours.

[1] = NIH3T3, read-out: 3T3 Max Activity (%)
[2] = NIH3T3, NIH 3T3 cells, F508del, read-out: 3T3 Max Activity (%)

T1 sequence (P13569 with tags, fused parts or gaps DEL508-508): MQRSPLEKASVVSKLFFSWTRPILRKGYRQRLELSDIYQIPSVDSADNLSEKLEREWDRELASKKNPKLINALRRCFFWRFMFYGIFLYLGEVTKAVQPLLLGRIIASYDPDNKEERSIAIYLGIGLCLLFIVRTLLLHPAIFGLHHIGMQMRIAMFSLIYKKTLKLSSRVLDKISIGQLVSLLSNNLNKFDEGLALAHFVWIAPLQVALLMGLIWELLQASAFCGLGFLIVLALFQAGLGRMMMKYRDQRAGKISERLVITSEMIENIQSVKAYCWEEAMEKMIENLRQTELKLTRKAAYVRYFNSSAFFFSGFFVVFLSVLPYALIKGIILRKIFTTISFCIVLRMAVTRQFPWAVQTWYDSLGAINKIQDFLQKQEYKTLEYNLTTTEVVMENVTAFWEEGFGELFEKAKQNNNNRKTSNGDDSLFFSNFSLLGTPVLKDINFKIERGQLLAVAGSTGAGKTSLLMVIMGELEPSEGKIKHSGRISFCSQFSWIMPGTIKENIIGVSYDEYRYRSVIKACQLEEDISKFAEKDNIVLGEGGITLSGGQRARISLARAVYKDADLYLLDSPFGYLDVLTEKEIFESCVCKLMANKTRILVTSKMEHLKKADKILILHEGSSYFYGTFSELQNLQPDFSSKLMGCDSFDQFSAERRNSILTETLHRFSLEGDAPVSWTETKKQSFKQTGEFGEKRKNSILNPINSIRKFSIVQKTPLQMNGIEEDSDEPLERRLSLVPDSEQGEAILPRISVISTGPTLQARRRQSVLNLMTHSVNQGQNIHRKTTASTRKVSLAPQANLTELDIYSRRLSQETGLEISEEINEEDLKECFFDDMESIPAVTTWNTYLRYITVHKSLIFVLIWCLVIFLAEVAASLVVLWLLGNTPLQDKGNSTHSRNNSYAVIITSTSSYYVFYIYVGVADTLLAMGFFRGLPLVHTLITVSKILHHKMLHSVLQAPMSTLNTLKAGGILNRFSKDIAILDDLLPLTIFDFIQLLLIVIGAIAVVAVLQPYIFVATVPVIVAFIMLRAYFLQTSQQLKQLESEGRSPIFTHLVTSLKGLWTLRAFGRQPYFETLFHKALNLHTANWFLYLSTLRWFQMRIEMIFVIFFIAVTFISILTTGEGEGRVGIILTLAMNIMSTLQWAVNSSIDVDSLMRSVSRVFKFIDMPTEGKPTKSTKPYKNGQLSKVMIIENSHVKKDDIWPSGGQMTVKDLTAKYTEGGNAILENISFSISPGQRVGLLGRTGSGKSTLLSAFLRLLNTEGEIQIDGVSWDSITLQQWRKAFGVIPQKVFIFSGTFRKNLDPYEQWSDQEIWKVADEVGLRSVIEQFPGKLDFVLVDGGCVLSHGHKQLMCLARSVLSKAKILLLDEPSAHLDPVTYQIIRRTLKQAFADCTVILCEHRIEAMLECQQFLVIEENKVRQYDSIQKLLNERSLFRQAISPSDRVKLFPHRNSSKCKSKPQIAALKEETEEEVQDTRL

O=S(=O)(Nc1onc(-c2ccc(Cl)cc2)c1-c1ccc(Cl)cc1)c1ccccc1 [Compound 1, N-[3,4-bis(4-chlorophenyl)isoxazol-5-yl]benzenesulfonamide]
Emax [1]: 30 to 60%
EC50 (NIH 3T3 cells, F508del): 1 to 3 µM

CCCc1oc(NS(=O)(=O)c2ccccc2)nc1-c1ccccc1 [Compound 2, N-(4-phenyl-5-propyl-oxazol-2-yl)benzenesulfonamide]
Emax [1]: 30 to 60%
EC50 (NIH 3T3 cells, F508del): 3 to 30 µM

Cc1ccc(-c2nc(NS(=O)(=O)c3ccccc3)oc2-c2ccc(C)cc2)cc1 [Compound 3, N-[4,5-bis(p-tolyl)oxazol-2-yl]benzenesulfonamide]
Emax [1]: > 60%
EC50 (NIH 3T3 cells, F508del): 1 to 3 µM

COc1ccccc1Cc1cnc(NS(=O)(=O)c2ccccc2)o1 [Compound 4, N-[5-[(2-methoxyphenyl)methyl]oxazol-2-yl]benzenesulfonamide]
Emax [2]: < 30%

CCCc1sc(NS(=O)(=O)c2ccccc2)nc1-c1ccc(C)cc1 [Compound 5, N-[5-propyl-4-(p-tolyl)thiazol-2-yl]benzenesulfonamide]
Emax [1]: > 60%
EC50 (NIH 3T3 cells, F508del): < 1 µM

CCCc1sc(NS(=O)(=O)c2ccccc2)nc1-c1ccc(C)cc1C [Compound 6, N-[4-(2,4-dimethylphenyl)-5-propyl-thiazol-2-yl]benzenesulfonamide]
Emax [1]: > 60%
EC50 (NIH 3T3 cells, F508del): < 1 µM

O=S(=O)(Nc1nc(-c2ccccc2)c(-c2ccccc2)s1)c1ccccc1 [Compound 7, N-(4,5-diphenylthiazol-2-yl)benzenesulfonamide]
Emax [1]: > 60%
EC50 (NIH 3T3 cells, F508del): 1 to 3 µM

Cc1ccc(C)c(-c2nc(NS(=O)(=O)c3ccccc3)sc2C)c1 [Compound 8, N-[4-(2,5-dimethylphenyl)-5-methyl-thiazol-2-yl]benzenesulfonamide]
Emax [1]: > 60%
EC50 (NIH 3T3 cells, F508del): < 1 µM

Nc1cccc(S(=O)(=O)Nc2nc(-c3ccccc3)c(Cc3ccccc3)s2)c1 [Compound 9, 3-amino-N-(5-benzyl-4-phenyl-thiazol-2-yl)benzenesulfonamide]
Emax [2]: 30 to 60%
EC50 (NIH 3T3 cells, F508del): 1 to 3 µM

Cc1ccc(-c2nc(NS(=O)(=O)c3ccccc3)sc2-c2ccc(C)cc2)cc1 [Compound 10, N-[4,5-bis(p-tolyl)thiazol-2-yl]benzenesulfonamide]
Emax [1]: 30 to 60%
EC50 (NIH 3T3 cells, F508del): < 1 µM

O=S(=O)(Nc1nc(-c2ccccc2)c(Oc2ccccc2)s1)c1ccccc1 [Compound 11, N-(5-phenoxy-4-phenyl-thiazol-2-yl)benzenesulfonamide]
Emax [2]: < 30%

O=S(=O)(Nc1nc(C2CC2)cs1)c1ccccc1 [Compound 12, N-(4-cyclopropylthiazol-2-yl)benzenesulfonamide]
Emax [2]: < 30%

COC(=O)c1sc(NS(=O)(=O)c2ccccc2)nc1-c1ccc(C)cc1 [Compound 13, methyl 2-(benzenesulfonamido)-4-(p-tolyl)thiazole-5-carboxylate]
Emax [2]: > 60%
EC50 (NIH 3T3 cells, F508del): 3 to 30 µM

O=C(NCc1ccccc1)c1sc(NS(=O)(=O)c2ccccc2)nc1-c1ccccc1 [Compound 14, 2-(benzenesulfonamido)-N-benzyl-4-phenyl-thiazole-5-carboxamide]
Emax [2]: 30 to 60%
EC50 (NIH 3T3 cells, F508del): 3 to 30 µM

CC(C)(C)CCNC(=O)c1sc(NS(=O)(=O)c2ccccc2)nc1-c1ccccc1 [Compound 15, 2-(benzenesulfonamido)-N-(3,3-dimethylbutyl)-4-phenyl-thiazole-5-carboxamide]
Emax [2]: 30 to 60%
EC50 (NIH 3T3 cells, F508del): 3 to 30 µM

O=S(=O)(Nc1nc(-c2ccc(Cl)cc2)c(S(=O)(=O)c2ccccc2)s1)c1ccccc1 [Compound 16, N-[5-(benzenesulfonyl)-4-(4-chlorophenyl)thiazol-2-yl]benzenesulfonamide]
Emax [2]: 30 to 60%
EC50 (NIH 3T3 cells, F508del): 1 to 3 µM

CC(C)c1sc(NS(=O)(=O)c2ccccc2)nc1-c1ccccc1 [Compound 17, N-(5-isopropyl-4-phenyl-thiazol-2-yl)benzenesulfonamide]
Emax [2]: > 60%
EC50 (NIH 3T3 cells, F508del): 3 to 30 µM

CCCc1sc(NS(=O)(=O)c2ccccc2)nc1-c1cc(C)ccc1C [Compound 18, N-[4-(2,5-dimethylphenyl)-5-propyl-thiazol-2-yl]benzenesulfonamide]
Emax [2]: > 60%
EC50 (NIH 3T3 cells, F508del): < 1 µM

CCCc1sc(NS(=O)(=O)c2ccccc2)nc1-c1ccc(OCC)cc1 [Compound 19, N-[4-(4-ethoxyphenyl)-5-propyl-thiazol-2-yl]benzenesulfonamide]
Emax [2]: 30 to 60%
EC50 (NIH 3T3 cells, F508del): 1 to 3 µM

CCCc1sc(NS(=O)(=O)c2ccccc2)nc1-c1ccc(OC)cc1 [Compound 20, N-[4-(4-methoxyphenyl)-5-propyl-thiazol-2-yl]benzenesulfonamide]
Emax [2]: > 60%
EC50 (NIH 3T3 cells, F508del): 1 to 3 µM

CCc1sc(NS(=O)(=O)c2ccccc2)nc1-c1ccccc1 [Compound 21, N-(5-ethyl-4-phenyl-thiazol-2-yl)benzenesulfonamide]
Emax [2]: > 60%
EC50 (NIH 3T3 cells, F508del): 3 to 30 µM

Cc1sc(NS(=O)(=O)c2ccccc2)nc1-c1ccc2c(c1)OCCO2 [Compound 22, N-[4-(2,3-dihydro-1,4-benzodioxin-6-yl)-5-methyl-thiazol-2-yl]benzenesulfonamide]
Emax [2]: 30 to 60%
EC50 (NIH 3T3 cells, F508del): 3 to 30 µM

Cc1sc(NS(=O)(=O)c2ccccc2)nc1-c1ccccc1 [Compound 23, N-(5-methyl-4-phenyl-thiazol-2-yl)benzenesulfonamide]
Emax [2]: > 60%
EC50 (NIH 3T3 cells, F508del): 3 to 30 µM

CCOC(=O)c1sc(NS(=O)(=O)c2ccccc2)nc1-c1ccccc1 [Compound 24, ethyl 2-(benzenesulfonamido)-4-phenyl-thiazole-5-carboxylate]
Emax [2]: > 60%
EC50 (NIH 3T3 cells, F508del): 3 to 30 µM

COc1ccccc1C1(c2cnc(NS(=O)(=O)c3ccccc3)s2)CC1 [Compound 25, N-[5-[1-(2-methoxyphenyl)cyclopropyl]thiazol-2-yl]benzenesulfonamide]
Emax [1]: > 60%
EC50 (NIH 3T3 cells, F508del): 3 to 30 µM

Cc1nc(NS(=O)(=O)c2ccccc2)sc1-c1ccccc1 [Compound 26, N-(4-methyl-5-phenyl-thiazol-2-yl)benzenesulfonamide]
Emax [1]: > 60%
EC50 (NIH 3T3 cells, F508del): 1 to 3 µM

COc1ccc(Cl)cc1Nc1nc(-c2sc(NS(=O)(=O)c3ccccc3)nc2C)cs1 [Compound 27, N-[5-[2-(5-chloro-2-methoxy-anilino)thiazol-4-yl]-4-methyl-thiazol-2-yl]benzenesulfonamide]
Emax [1]: 30 to 60%
EC50 (NIH 3T3 cells, F508del): 1 to 3 µM

Nc1cccc(S(=O)(=O)Nc2nc(-c3ccccc3)c(Cc3cccc(C(=O)O)c3)s2)c1 [Compound 28, 3-[[2-[(3-aminophenyl)sulfonylamino]-4-phenyl-thiazol-5-yl]methyl]benzoic acid]
Emax [2]: < 30%

COc1ccccc1Nc1nc(-c2sc(NS(=O)(=O)c3ccccc3)nc2C)cs1 [Compound 29, N-[5-[2-(2-methoxyanilino)thiazol-4-yl]-4-methyl-thiazol-2-yl]benzenesulfonamide]
Emax [2]: 30 to 60%
EC50 (NIH 3T3 cells, F508del): 3 to 30 µM

Cc1nc(NS(=O)(=O)c2ccccc2)sc1-c1csc(Nc2ccccn2)n1 [Compound 30, N-[4-methyl-5-[2-(2-pyridylamino)thiazol-4-yl]thiazol-2-yl]benzenesulfonamide]
Emax [2]: 30 to 60%
EC50 (NIH 3T3 cells, F508del): 1 to 3 µM

O=S(=O)(Nc1ncc(Cc2cnccn2)s1)c1ccccc1 [Compound 31, N-[5-(pyrazin-2-ylmethyl)thiazol-2-yl]benzenesulfonamide]
Emax [2]: < 30%

O=S(=O)(Nc1ncc(Cc2ccccc2)s1)c1ccccc1 [Compound 32, N-[5-benzyl-thiazol-2-yl]benzenesulfonamide]
Emax [2]: 30 to 60%

O=C(Nc1ccccc1)c1sc(NS(=O)(=O)c2ccccc2)nc1-c1ccccc1 [Compound 33, N,4-diphenyl-2-(phenylsulfonamido)thiazole-5-carboxamide]
Emax [2]: < 30%

O=C(c1sc(NS(=O)(=O)c2ccccc2)nc1-c1ccccc1)N1CCCCC1 [Compound 34, N-[4-phenyl-5-(piperidine-1-carbonyl)thiazol-2-yl]benzenesulfonamide]
Emax [2]: < 30%

COCCNC(=O)c1sc(NS(=O)(=O)c2ccccc2)nc1-c1ccccc1 [Compound 35, 2-(benzenesulfonamido)-N-(2-methoxyethyl)-4-phenyl-thiazole-5-carboxamide]
Emax [2]: < 30%

CC(C)(C)NC(=O)c1sc(NS(=O)(=O)c2ccccc2)nc1-c1ccccc1 [Compound 36, 2-(benzenesulfonamido)-N-tert-butyl-4-phenyl-thiazole-5-carboxamide]
Emax [2]: < 30%

O=C(NCCOCC1CC1)c1sc(NS(=O)(=O)c2ccccc2)nc1-c1ccccc1 [Compound 37, 2-(benzenesulfonamido)-N-[2-(cyclopropylmethoxy)ethyl]-4-phenyl-thiazole-5-carboxamide]
Emax [2]: < 30%

CCCN(C)C(=O)c1sc(NS(=O)(=O)c2ccccc2)nc1-c1ccccc1 [Compound 38, 2-(benzenesulfonamido)-N-methyl-4-phenyl-N-propyl-thiazole-5-carboxamide]
Emax [2]: < 30%
